Tests used:
[1] = system: Erigeron canadensis; test: Herbicidal activity against glyphosate-resistant Conyza canadensis (horseweed) assessed as residual control at 71 g a.i./ha treated during autumn and spring measured 8 weeks after treatment; type: functional
[2] = system: Erigeron canadensis; test: Herbicidal activity against glyphosate-resistant Conyza canadensis (horseweed) assessed as residual control at 71 g a.i./ha treated during autumn and spring measured 4 weeks after treatment; type: functional
[3] = system: Gossypium hirsutum; test: Toxicity in Gossypium hirsutum (cotton) assessed as formation of injury to cotton; type: organism-based; conditions: in vivo
[4] = system: Erigeron canadensis; test: Herbicidal activity against glyphosate-resistant Conyza canadensis (horseweed) assessed as residual control at 71 g a.i./ha treated during autumn and spring measured 6 weeks after treatment; type: functional
[5] = system: Erigeron canadensis; test: Herbicidal activity against glyphosate-resistant Conyza canadensis (horseweed) assessed as residual control at 1680 g a.i./ha treated during autumn and spring measured 8 weeks after treatment; type: functional
[6] = system: Erigeron canadensis; test: Herbicidal activity against glyphosate-resistant Conyza canadensis (horseweed) assessed as residual control at 1680 g a.i./ha treated during autumn and spring measured 6 weeks after treatment; type: functional
[7] = system: Erigeron canadensis; test: Herbicidal activity against glyphosate-resistant Conyza canadensis (horseweed) assessed as residual control at 1680 g a.i./ha treated during autumn and spring measured 4 weeks after treatment; type: functional
[8] = system: Erigeron canadensis; test: Herbicidal activity against glyphosate-resistant Conyza canadensis (horseweed) assessed as residual control at 1120 g a.i./ha treated during autumn and spring measured 8 weeks after treatment; type: functional
[9] = system: Erigeron canadensis; test: Herbicidal activity against glyphosate-resistant Conyza canadensis (horseweed) assessed as residual control at 1120 g a.i./ha treated during autumn and spring measured 4 weeks after treatment; type: functional
[10] = system: Erigeron canadensis; test: Herbicidal activity against glyphosate-resistant Conyza canadensis (horseweed) assessed as residual control at 1120 g a.i./ha treated during autumn and spring measured 6 weeks after treatment; type: functional
[11] = system: Erigeron canadensis; test: Herbicidal activity against glyphosate-resistant Conyza canadensis (horseweed) assessed as residual control at 1400 g a.i./ha treated during autumn and spring measured 6 weeks after treatment; type: functional
[12] = system: Erigeron canadensis; test: Herbicidal activity against glyphosate-resistant Conyza canadensis (horseweed) assessed as residual control at 1400 g a.i./ha treated during autumn and spring measured 8 weeks after treatment; type: functional
[13] = system: Erigeron canadensis; test: Herbicidal activity against glyphosate-resistant Conyza canadensis (horseweed) assessed as residual control at 1400 g a.i./ha treated during autumn and spring measured 4 weeks after treatment; type: functional
[14] = system: Erigeron canadensis; test: Herbicidal activity against glyphosate-resistant Conyza canadensis (horseweed) assessed as residual control at 47 g a.i./ha treated during autumn and spring measured 8 weeks after treatment; type: functional
[15] = system: Erigeron canadensis; test: Herbicidal activity against glyphosate-resistant Conyza canadensis (horseweed) assessed as residual control at 47 g a.i./ha treated during autumn and spring measured 6 weeks after treatment; type: functional
[16] = system: Erigeron canadensis; test: Herbicidal activity against glyphosate-resistant Conyza canadensis (horseweed) assessed as residual control at 47 g a.i./ha treated during autumn and spring measured 4 weeks after treatment; type: functional
[17] = Half life of the compound under anaerobic condition
[18] = Half life of the compound
[19] = Half life of the compound under aerobic condition
[20] = system: Erigeron canadensis; test: Herbicidal activity against glyphosate-resistant Conyza canadensis (horseweed) assessed as residual control at 420 g a.i./ha treated during autumn and spring measured 8 weeks after treatment; type: functional
[21] = system: Erigeron canadensis; test: Herbicidal activity against glyphosate-resistant Conyza canadensis (horseweed) assessed as residual control at 420 g a.i./ha treated during autumn and spring measured 6 weeks after treatment; type: functional
[22] = system: Erigeron canadensis; test: Herbicidal activity against glyphosate-resistant Conyza canadensis (horseweed) assessed as residual control at 420 g a.i./ha treated during autumn and spring measured 4 weeks after treatment; type: functional

Compound: C#CCN1C(=O)COc2cc(F)c(N3C(=O)C4=C(CCCC4)C3=O)cc21 [FLUMIOXAZIN]
- Activity [1]: 35%
- Activity [2]: 100%
- Activity [3]: Non-toxic
- Activity [4]: 99%

Compound: CNc1cnn(-c2cccc(C(F)(F)F)c2)c(=O)c1Cl [NORFLURAZONE]
- Activity [3]: Non-toxic
- Activity [5]: 100%
- Activity [6]: 100%
- Activity [7]: 100%

Compound: CSc1nc(NC(C)C)nc(NC(C)C)n1 [PROMETRYN]
- Activity [3]: Non-toxic
- Activity [8]: 20%
- Activity [9]: 100%
- Activity [10]: 98%

Compound: CN(C)C(=O)Nc1cccc(C(F)(F)F)c1 [FLUOMETURON]
- Activity [11]: 99%
- Activity [12]: 80%
- Activity [13]: 98%
- Activity [3]: Non-toxic

Compound: COc1cc(OC)nc(Sc2cccc(Cl)c2C(=O)O)n1 [PYRITHIOBAC]
- Activity [14]: 37%
- Activity [3]: Non-toxic
- Activity [15]: 72%
- Activity [16]: 60%

Compound: COc1c(Cl)ccc(Cl)c1C(=O)O [3,6 DICHLOROMETHOXYBENZOIC ACID]
- half-life [17]: 58 days
- half-life [18]: 7 days
- half-life [19]: 31 days

Compound: CCOc1cc(Oc2ccc(C(F)(F)F)cc2Cl)ccc1[N+](=O)[O-] [OXYFLUORFEN]
- Activity [20]: 95%
- Activity [21]: 99%
- Activity [22]: 100%
- Activity [3]: Non-toxic

Compound: CN(C)C(=O)Nc1ccc(Cl)c(Cl)c1 [DCMU]
- Activity [3]: Non-toxic
- Activity [8]: 25%
- Activity [9]: 100%
- Activity [10]: 99%
